Calls of active or inactive are those of the source. The rule behind the calls is not given here.
Assays:
Cell membrane [1] = experiment: Disruption of bacterial cell membrane in methicillin-resistant Staphylococcus aureus ATCC 33591 assessed as reduction in green fluorescence intensity at MIC incubated for 2 hrs by MycoLightGreen1198/PI staining based confocal laser scanning microscopy; type: subcellular
[2] = tested on: Mycoplasmoides gallisepticum; experiment: Anti-mycoplasma activity against Mycoplasma gallisepticum R NCTC10115 assessed as inhibition of mycoplasma growth measured after 7 days by broth microdilution method; type: functional; conditions: R NCTC10115, 168 h, time 7 day
Mycoplasmopsis synoviae [3] = experiment: Anti-mycoplasma activity against Mycoplasma synoviae WVU1853 NCTC10124 assessed as inhibition of mycoplasma growth measured after 7 days by broth microdilution method; type: functional; conditions: WVU1853 NCTC10124, 168 h, time 7 day
Cell membrane [4] = experiment: Disruption of bacterial cell membrane in methicillin-resistant Staphylococcus aureus ATCC 33591 assessed as increase in red fluorescence intensity at MIC incubated for 2 hrs by MycoLightGreen1198/PI staining based confocal laser scanning microscopy; type: subcellular
Staphylococcus aureus [5] = experiment: Disruption of biofilm formation in methicillin-resistant Staphylococcus aureus ATCC 33591 assessed as inhibition of biofilm formation at 4XMIC measured after 24 hrs by crystal violet staining based analysis; type: functional
Cell membrane [6] = experiment: Disruption of bacterial cell membrane in methicillin-resistant Staphylococcus aureus ATCC 33591 assessed as increase in fluorescence intensity at 8XMIC measured within 3 mins by DiBAC4(3) dye based fluorescence analysis relative to control; type: subcellular
Mycoplasmopsis synoviae [7] = experiment: Potency index, ratio of tiamulin MIC to test compound MIC against anti-mycoplasma activity against Mycoplasma synoviae WVU1853 NCTC10124; type: functional
Cell membrane [8] = experiment: Disruption of bacterial cell membrane in methicillin-resistant Staphylococcus aureus ATCC 33591 assessed as increase in number of surface folds and atrophy at MIC incubated for 4 hrs by FESEM analysis; type: subcellular
Cell membrane [9] = experiment: Disruption of bacterial cell membrane in Escherichia coli ATCC 25922 incubated for 4 hrs by FESEM analysis; type: subcellular
[10] = tested on: Mesomycoplasma hyopneumoniae; experiment: Anti-mycoplasma activity against Mycoplasma hyopneumoniae J NCTC10110 assessed as inhibition of mycoplasma growth measured after 7 days by broth microdilution method; type: functional; conditions: J NCTC10110, 168 h, time 7 day
Cell membrane [11] = experiment: Disruption of bacterial cell membrane in Escherichia coli ATCC 25922 assessed as increase in number of surface folds and atrophy at MIC incubated for 4 hrs by FESEM analysis
Cell membrane [12] = experiment: Disruption of bacterial cell membrane in Escherichia coli ATCC 25922 assessed as reduction in green fluorescence intensity at MIC incubated for 2 hrs by MycoLightGreen1198/PI staining based confocal laser scanning microscopy
Staphylococcus aureus [13] = experiment: Disruption of biofilm formation in methicillin-resistant Staphylococcus aureus ATCC 33591 assessed as inhibition of biofilm formation at MIC measured after 24 hrs by crystal violet staining based analysis; type: functional
[14] = tested on: Mycoplasmoides gallisepticum; experiment: Potency index, ratio of tiamulin MIC to test compound MIC against anti-mycoplasma activity against Mycoplasma gallisepticum R NCTC10115; type: functional
Staphylococcus aureus [15] = experiment: Antibacterial activity against methicillin-resistant Staphylococcus aureus ATCC 33591 infected in Kunming mouse assessed as animal survival rate at 10 mg/kg, ip for 7 days starting from 1 hr post-infection; type: functional; conditions: ATCC 33591, 168 h, time 7 day
Staphylococcus aureus [16] = experiment: Antibacterial activity against […] assessed as inhibition of bacterial growth incubated for 24 hrs by broth microdilution method; type: functional; conditions: ATCC 29213
[17] = Cmax in Sprague-Dawley rat at 1 mg/kg, iv by LC-MS analysis; type: ADME, organism-based; set-up: dose 1 mg/kg, route iv; conditions: in vivo
Cell membrane [18] = experiment: Disruption of bacterial cell membrane in methicillin-resistant Staphylococcus aureus ATCC 33591 assessed as severe depression on the cell surface,cell rupture and leakage of intracellular components at 4XMIC incubated for 4 hrs by FESEM analysis; type: subcellular
Salmonella enterica = experiment: Antibacterial activity against Salmonella enterica ATCC 14028 assessed as inhibition of bacterial growth incubated for 24 hrs by broth microdilution method; type: functional
[19] = tested on: Mycoplasmoides pneumoniae; experiment: Anti-mycoplasma activity against Mycoplasma pneumoniae M129 ATCC15531 assessed as inhibition of mycoplasma growth measured after 7 days by broth microdilution method; type: functional; conditions: M129 ATCC15531, 168 h, time 7 day
Staphylococcus aureus [20] = experiment: Antibacterial activity against methicillin-resistant Staphylococcus aureus ATCC 33591 infected in Kunming mouse assessed as reduction in inflammatory cell infiltration in lungs at 3 to 10 mg/kg, ip for 2 days starting from 1 hr post-infection by hematoxylin-eosin staining based analysis; type: functional, organism-based; conditions: dose 3-10 mg/kg, time 2.0 day
Cell membrane [21] = experiment: Disruption of bacterial cell membrane in methicillin-resistant Staphylococcus aureus ATCC 33591 incubated for 4 hrs by FESEM analysis; type: subcellular
Escherichia coli [22] = experiment: Antibacterial activity against Escherichia coli ATCC 25922 assessed as inhibition of bacterial growth incubated for 24 hrs by broth microdilution method; type: functional
Pseudomonas aeruginosa = experiment: Antibacterial activity against multidrug-resistant Pseudomonas aeruginosa 126 assessed as inhibition of bacterial growth incubated for 24 hrs by broth microdilution method; type: functional
Staphylococcus aureus [23] = experiment: Antibacterial activity against methicillin-resistant Staphylococcus aureus 171 assessed as inhibition of bacterial growth incubated for 24 hrs by broth microdilution method; type: functional
[24] = Volume of distribution at steady state in Sprague-Dawley rat at 1 mg/kg, iv by LC-MS analysis; type: ADME, organism-based; conditions: in vivo, read-out: Vdss
Staphylococcus aureus [25] = experiment: Antibacterial activity against methicillin-resistant Staphylococcus aureus 596 assessed as inhibition of bacterial growth incubated for 24 hrs by broth microdilution method; type: functional
[26] = Cytotoxicity against human HepG2 cells assessed as reduction in cell viability measured after 48 hrs by CCK8 assay; type: toxicity, cell-based
Mycoplasma genitalium = experiment: Anti-mycoplasma activity against Mycoplasma genitalium G37 ATCC33530 assessed as inhibition of mycoplasma growth measured after 7 days by broth microdilution method; type: functional; conditions: Mycoplasmoides genitalium, G37 ATCC33530, 168 h; time 7 day
[27] = Tmax in Sprague-Dawley rat at 1 mg/kg, iv by LC-MS analysis; type: ADME, organism-based; conditions: in vivo
Enterococcus = experiment: Antibacterial activity against vancomycin-resistant Enterococcus 80 assessed as inhibition of bacterial growth incubated for 24 hrs by broth microdilution method; type: functional
Escherichia coli [28] = experiment: Bactericidal activity against Escherichia coli ATCC 25922 assessed as reduction in bacterial colonies formation at 2XMIC incubated for 12 hrs in MHB followed by culturing on agar plate for 24 hrs by time-kill kinetics based analysis; type: functional; set-up: scale not given: the % may be the effect or the level left; conditions: time 36 hrs
Staphylococcus aureus [29] = experiment: Antibacterial activity against methicillin-resistant Staphylococcus aureus ATCC 33591 infected in Kunming mouse assessed as reduction in bacterial load in lungs at 5 to 10 mg/kg, ip for 2 days starting from 1 hr post-infection by hematoxylin-eosin staining based analysis; type: functional, organism-based; conditions: dose 5-10 mg/kg, time 2.0 day
Cell membrane [30] = experiment: Disruption of bacterial cell membrane in methicillin-resistant Staphylococcus aureus ATCC 33591 assessed as increase in fluorescence intensity by DiBAC4(3) dye based fluorescence analysis; type: subcellular
Mesomycoplasma hyorhinis = experiment: Anti-mycoplasma activity against Mycoplasma hyorhinis BTS-7 NCTC10130 assessed as inhibition of mycoplasma growth measured after 7 days by broth microdilution method; type: functional; conditions: BTS-7 NCTC10130, 168 h, time 7 day

C=C[C@]1(C)C[C@@H](OC(=O)CSc2nc(-c3cc[n+](Cc4ccc(C)cc4)cc3)cs2)[C@]2(C)[C@H](C)CC[C@]3(CCC(=O)[C@H]32)[C@@H](C)[C@@H]1O.[Br-]
Activity (Cell membrane [1]): Active | MIC [2]: 0.004 µg/mL | MIC (Mycoplasmopsis synoviae [3]): 0.015 µg/mL | Activity (Cell membrane [4]): Active | inhibition (INH) (Staphylococcus aureus [5]): 86.43% | fold change (FC) (Cell membrane [6]): 6 | Ratio (Mycoplasmopsis synoviae [7]): 10 | Activity (Cell membrane [8]): Active | Activity (Cell membrane [9]): Dose-Dependent Effect | MIC [10]: 0.004 µg/mL | Activity (Cell membrane [11]): Active | Activity (Cell membrane [12]): Active | inhibition (INH) (Staphylococcus aureus [13]): 57.97% | Ratio [14]: 10 | survival at 10 mg/kg (Staphylococcus aureus [15]): 71.4% | MIC (Staphylococcus aureus [16]): 0.062 µg/mL | Cmax [17]: 9670 ng/mL | Activity (Cell membrane [18]): Active | MIC (Salmonella enterica): 2 µg/mL | MIC [19]: 0.03 µg/mL | Activity (Staphylococcus aureus [20]): Active | Activity (Cell membrane [21]): Dose-Dependent Effect | MIC (Escherichia coli [22]): 0.062 µg/mL | MIC (Pseudomonas aeruginosa): 64 µg/mL | MIC (Staphylococcus aureus [23]): 4 µg/mL | Vd [24]: 2.1 L/kg | MIC (Staphylococcus aureus [25]): 2 µg/mL | CC50 at 48 h [26]: 89.8 µM | MIC (Mycoplasma genitalium): 0.015 µg/mL | Tmax [27]: 1.8 min | MIC (Enterococcus): 2 µg/mL | Activity (Escherichia coli [28]): 100% | Activity (Staphylococcus aureus [29]): Active | Activity (Cell membrane [30]): Dose-Dependent Effect | MIC (Mesomycoplasma hyorhinis): 0.008 µg/mL
